Laboratory results from PMC8234864, “Early Effects of the Soluble Amyloid β25-35 Peptide in Rat Cortical Neurons: Modulation of Signal Transduction Mediated by Adenosine and Group I Metabotropic Glutamate Receptors” (International Journal of Molecular Sciences, 2021).
Where no end group is shown, it is not given here.

Assays:
Caspase 3 = Caspase 3 activity assay; assay type: cell-based, rat; conditions: 25 µM Aβ25-35 exposure
Protocol: A commercial kit (Molecular Probes, Barcelona, Spain) was used to determine Caspase 3 activity following the manufacturer’s instructions. Briefly, cortical neurons growth in 24-well plates were exposed to Aβ25-35 or maintained under control conditions. Cells were lysed and lysates centrifuged to clear cell debris. Then, 50 µL of test buffer containing Z-DEVD-Rhodamine 110, DTT, EDTA, PIPES, and CHAPS was added to the supernatants obtained in the proportions indicated by the manufacturer. After 30 min of incubation at room temperature, the […] of each sample was measured on a plate reader (excitation/emission 496/520 nm).

mGluR5 = test: Extracellular immunostaining of mGluR5 in non-permeabilized neurons; assay type: cell-based, rat; conditions: 25 µM, 24 h, whole-cell immunostaining
Protocol: (§1) The quantitative analysis of the levels of Group I mGluR and mGluR2,3 at the plasma membrane was performed with extracellular targeted polyclonal antibodies (mGluR1, mGluR5 and mGluR2,3, Alomone Labs, Jerusalem, Israel), as previously described with minor modifications. Briefly, after 2 weeks in culture, the culture medium was removed and cells washed with Locke Buffer (LB, pH 7.4). Cells were then fixed with 4% paraformaldehyde for 10 min at room temperature and washed with three 10-min intervals with LB.
(§2) Nonspecific staining was suppressed by blocking with 3% normal goat serum in LB for 60 min. […]
(§3) To evaluate the degree of fluorescence intensity in cortical neurons, fluorescence was measured to estimate the protein expression in the different experimental conditions analyzed. Images (448.6 µm × 335.08 µm) obtained with a digital camera (Leica DFC350FX R2), attached to a Leica DMI6000B (Leica Microsystems, Wetzlar, Germany) fluorescent microscope, were used for quantification (20x HCX PL FLUOTAR 0.4 dry objective). […] Fluorescence intensity was estimated by averaging mean grey values. […] Data were normalized to the total number of cells in the analyzed fields. The mean fluorescence background, calculated in the unstained regions between neurons, was subtracted from the fluorescence intensity of each data point. […]

mGluR2,3 = test: Extracellular immunostaining of mGluR2,3 in non-permeabilized neurons; assay type: cell-based, rat; conditions: 25 µM, 24 h
Protocol: as §1, §2, §3

A2AR = molecular target: T1, A2AR (Rattus norvegicus, UniProt P30543); test: A2AR-mediated AC stimulation (CGS 21680); assay type: cell-based; conditions: 25 µM, 24 h; 1 µM CGS 21680
T1 construct: endogenous in cells; host or cells: rat primary cortical neurons (intact)
Protocol: AC activity was determined as previously reported by Murphy with minor modifications. Briefly, control or treated cells were pre-incubated in serum-free DMEM buffered with 20 mM HEPES, pH 7.4, supplemented with 100 µM Ro 20-1724 and 2 U/mL ADA, for 10 min at 37 °C. AC activity was stimulated using specific ligands for 15 min at 37 °C in a final volume of 250 µL. The reaction was stopped by adding 500 µL 0.1 M HCl in absolute ethanol. Once centrifuged at 12,000× g for 10 min, supernatants were evaporated in speed-vac and resuspended in 150 µL assay buffer (50 mM Tris-HCl, 4 mM EDTA). Fifty microliters of the sample were used to determine cAMP accumulation using protein kinase A as a cAMP binding protein and [^3H]cAMP as radioligand. A cAMP standard curve (0–16 pmol) was prepared in the same buffer. Incubation was stopped by rapid filtration through Whatman GF/B filters.

T1 sequence (P30543 whole entry): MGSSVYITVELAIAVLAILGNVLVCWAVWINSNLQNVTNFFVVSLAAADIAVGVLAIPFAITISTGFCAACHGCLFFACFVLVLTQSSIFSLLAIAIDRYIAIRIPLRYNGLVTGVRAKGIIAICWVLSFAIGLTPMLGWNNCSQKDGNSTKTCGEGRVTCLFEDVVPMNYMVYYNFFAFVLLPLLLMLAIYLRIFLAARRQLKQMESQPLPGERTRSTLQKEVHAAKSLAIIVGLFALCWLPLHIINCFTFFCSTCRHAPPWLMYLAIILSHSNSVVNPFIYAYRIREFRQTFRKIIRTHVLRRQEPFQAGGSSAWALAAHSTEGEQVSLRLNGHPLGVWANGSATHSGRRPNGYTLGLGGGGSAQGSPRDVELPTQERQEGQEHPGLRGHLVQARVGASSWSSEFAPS

GSNKGAIIGLM [Aβ25-35] was tested, and the “caspase 3 activity” value (Caspase 3) was “increase”, the “mGluR5 density at the membrane level vs control value” (mGluR5) was “twice over control value” and the “mGluR2,3 density at the membrane surface of cell bodies” value (mGluR2,3) was “decrease”. The “A2AR-mediated stimulation of AC activity” value (A2AR) was “did not alter”.
